Tests used:
A. fumigatus A1163 [1] = test: Temporary (TI) neutropenic murine survival model of disseminated aspergillosis; format: in vivo, CD-1 mouse; conditions: for survival at day 18: TI model with prolonged observation; for survival at day 18 / survival benefit / survival: oral; for survival benefit / survival: TI survival model
Method: (§1) Methods: Temporary (TI) or persistently (PI) neutropenic CD-1 mouse models of disseminated aspergillus were used. 3 days post immunosuppression with cyclophosphamide (200 mg/kg ip) mice were infected IV with an LD90 challenge of A. fumigatus A1163. Treatment commenced 5 h post infection and animals were treated for 9 days and observed for either 2 days or 7 days following cessation of treatment. […] 2-(1,5-Dimethyl-3-phenyl-1H-pyrrol-2-yl)-N-{4-[4-(4,6-dimethyl-pyridin-2-yl)-piperazin-1-yl]-phenyl}-2-oxo-acetamide was dosed orally as a suspension in HPMC/Tween 80 once or twice daily. Caspofungin dosed IP was used as a comparator.

Aspergillus terreus AT4 = test: MIC, RPMI medium; format: cell-based; conditions: Aspergillus terreus, AT4, MIC banded into grades, read-out: MIC grade, A. terreus
Procedure, shortened: (§2)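 RPMI (2% glucose, 0.135 M MOPS, pH 7.0) microdilution; drug 50-0.05 mg/L doubling series; inoculum 1−2×10^4 cfu/mL; 24-48 h, 35° C; OD485; MIC = lowest conc. with >80% inhibition vs drug-free control.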

Aspergillus niger = test: MIC, RPMI medium; format: cell-based; conditions: Aspergillus niger, MIC banded into grades, read-out: MIC grade, A. niger
Procedure, shortened: as §2

[2] = tested on: Aspergillus fumigatus AF210; test: MIC, RPMI medium; format: cell-based; conditions: Aspergillus fumigatus, AF210, MIC banded into grades, read-out: MIC grade, A. fumigatus 210
Procedure, shortened: as §2

Aspergillus flavus = test: MIC, RPMI medium; format: cell-based; conditions: Aspergillus flavus, MIC banded into grades, read-out: MIC grade, A. flavus
Procedure, shortened: as §2

[3] = tested on: Aspergillus fumigatus AF293; test: MIC, RPMI medium; format: cell-based; conditions: Aspergillus fumigatus, AF293, MIC banded into grades, read-out: MIC grade, A. fumigatus
Procedure, shortened: as §2

Aspergillus terreus AT49 = test: MIC, RPMI medium; format: cell-based; conditions: Aspergillus terreus, AT49, MIC banded into grades, read-out: MIC grade, A. terreus 49
Procedure, shortened: as §2

[4] = tested on: Aspergillus and other filamentous fungi; test: Activity in vitro against Aspergillus and other filamentous fungi; format: cell-based
A. fumigatus A1163 [5] = test: Persistently (PI) neutropenic murine survival model of disseminated aspergillosis; format: in vivo, CD-1 mouse; conditions: severe PI model, oral, 20 mg/kg BD
Method: as §1

[6] = Oral bio-availability and tissue distribution; conditions: in vivo

In the case of `Cc1cc(C)nc(N2CCN(c3ccc(NC(=O)C(=O)c4c(-c5ccccc5)cc(C)n4C)cc3)CC2)c1` [Example 1, 2-(1,5-Dimethyl-3-phenyl-1H-pyrrol-2-yl)-N-{4-[4-(4,6-dimethyl-pyridin-2-yl)-piperazin-1-yl]-phenyl}-2-oxo-acetamide], the “survival at day 18” value (A. fumigatus A1163 [1]; 10 mg/kg BD) is reported as 80%, the “survival at day 18” value (A. fumigatus A1163 [1]; 20 mg/kg OD) is reported as 70% and the survival benefit (A. fumigatus A1163 [1]; 1.25 mg/kg per day) is reported as “little benefit”. For the same molecule, the survival benefit (A. fumigatus A1163 [1]; 2.5 mg/kg per day) was “little benefit”, the survival (A. fumigatus A1163 [1]; 5 mg/kg per day) was 80% and the survival (A. fumigatus A1163 [1]; 10 mg/kg/day) was 90%. It also gave a survival (A. fumigatus A1163 [1]; 20 mg/kg/day) of 100%, a survival (A. fumigatus A1163 [1]; 30 mg/kg/day) of 100% and a survival (A. fumigatus A1163 [1]; 40 mg/kg/day) of 100%. For the same molecule, the “efficacy compared with caspofungin (CAS) dosed IP” value (A. fumigatus A1163 [1]; in these models (TI and PI)) was “at least as effective as CAS”, the MIC (Aspergillus terreus AT4) was < 1 µg/mL and the MIC (Aspergillus niger) was < 1 µg/mL. For the same molecule, the MIC [2] was < 1 µg/mL, the MIC (Aspergillus flavus) was < 1 µg/mL and the MIC [3] was < 1 µg/mL. For the same molecule, the MIC (Aspergillus terreus AT49) was < 1 µg/mL, the “activity in vitro against Aspergillus and other filamentous fungi” value [4] was “excellent activity” and the “survival at day 12” value (A. fumigatus A1163 [5]) was 70%. For the same molecule, the tissue distribution [6] was “good” and the oral bio-availability ([6]; po) was “good”.
